Results from ChEMBL document CHEMBL4842375, “Discovery of a Potent Glutathione Peroxidase 4 Inhibitor as a Selective Ferroptosis Inducer” (J Med Chem, 2021).
Active and inactive are the calls of the source. The calls are words filed in the database; no cut-off is given here.

Experiments:
4T1 [1] = assay: Induction of ferroptosis in mouse 4T1 cells assessed as reduction in GSH levels at 5 uM; format: functional, cell-based
4T1 [2] = assay: Induction of ferroptosis in mouse 4T1 cells assessed as reduction in mitochondrial cristae at 5 uM incubated for 6 hrs by TEM analysis; format: functional, cell-based
4T1 [3] = assay: Antitumor activity against mouse 4T1 cells xenografted in BALB/c mouse assessed as tumor growth inhibition at 15 mg/kg, iv administered every two days for total 5 times and monitered every two days by electronic caliper method; format: functional; conditions: 4T1, iv, 48 h, read-out: TGI
[4] = Toxicity in BALB/C mouse xenografted with mouse 4T1 cells assessed as change in biochemical indexes at 15 to 30 mg/kg, iv administered every two days for total 5 times and monitered every two days; format: organism-based; conditions: in vivo, dose 15-30 mg/kg
4T1 [5] = assay: Induction of intracellular ROS generation in mouse 4T1 cells at 2.5 uM incubated for 6 hrs in presence of Fer-1 by DCFH-DA staining based flow cytometric analysis; format: functional, cell-based
4T1 [6] = assay: Induction of ferroptosis in mouse 4T1 cells assessed as reversal of cytotoxicity after 48 hrs in presence of glutathione by MTT assay; format: functional, cell-based
4T1 [7] = assay: Induction of LPO accumulation in mouse 4T1 cells at 2.5 uM incubated for 6 hrs in presence of Fer-1 by C11-BODIPY staining based flow cytometric analysis; format: functional, cell-based
4T1 [8] = assay: Induction of ferroptosis in mouse 4T1 cells assessed as reversal of cytotoxicity after 48 hrs in presence of NAC by MTT assay; format: functional, cell-based
[9] = Selectivity index, ratio of IC50 for cytotoxicity against human HT-1080 cells in presence of Fer-1 to IC50 for cytotoxicity against human HT-1080 cells; format: functional
4T1 [10] = assay: Induction of LPO accumulation in mouse 4T1 cells assessed as increase in MDA level at 2.5 uM incubated for 6 hrs; format: functional, cell-based
[11] = target: T1, Phospholipid hydroperoxide glutathione peroxidase GPX4 (Homo sapiens) (UniProt P36969); assay: Inhibition of GPX4 in mouse 4T1 cells assessed as decrease in intracellular GPX4 activity at 5 uM after 6 hrs; format: cell-based
T1 sequence (whole entry): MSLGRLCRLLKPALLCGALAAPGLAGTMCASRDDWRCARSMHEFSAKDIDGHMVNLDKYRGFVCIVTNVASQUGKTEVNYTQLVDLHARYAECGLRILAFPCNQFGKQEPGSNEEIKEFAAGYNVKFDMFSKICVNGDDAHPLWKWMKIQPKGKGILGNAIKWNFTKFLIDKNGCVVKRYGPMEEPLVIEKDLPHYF

4T1 [12] = assay: Induction of ferroptosis in mouse 4T1 cells assessed as ruptured mitochondria at 5 uM incubated for 6 hrs by TEM analysis; format: functional
[13] = Toxicity in BALB/C mouse xenografted with mouse 4T1 cells assessed as change in body weight at 15 to 30 mg/kg, iv administered every two days for total 5 times and monitered every two days; format: organism-based; conditions: in vivo, dose 15-30 mg/kg
4T1 [14] = assay: Antitumor activity against mouse 4T1 cells xenografted in BALB/c mouse assessed as tumor growth inhibition at 30 mg/kg, iv administered every two days for total 5 times and monitered every two days by electronic caliper method; format: functional; conditions: 4T1, iv, 48 h, read-out: TGI
HT-1080 [15] = assay: Cytotoxicity against human HT-1080 cells assessed as reduction in cell viability incubated for 48 hrs in presence of Fer-1 by MTT assay; format: functional, cell-based; conditions: HT-1080, 48 h
[16] = Stability of compound in glutathione after 12 hrs by HPLC analysis; format: physicochemical
4T1 [17] = assay: Induction of LPO accumulation in mouse 4T1 cells at 2.5 uM incubated for 6 hrs by C11-BODIPY staining based flow cytometric analysis; format: functional, cell-based
4T1 [18] = assay: Induction of LPO accumulation in mouse 4T1 cells at 2.5 uM incubated for 6 hrs by C11-BODIPY staining based confocal laser scanning microscopic analysis; format: functional, cell-based
4T1 [19] = assay: Induction of intracellular ROS generation in mouse 4T1 cells at 2.5 uM incubated for 6 hrs by DCFH-DA staining based confocal laser scanning microscopic analysis; format: functional, cell-based
4T1 [20] = assay: Effect on intracellular GSH level in mouse 4T1 cells assessed as reduction in GSH level; format: functional, cell-based
[21] = Toxicity in BALB/C mouse xenografted with mouse 4T1 cells assessed as change in morphology of tissues and cells at 15 to 30 mg/kg, iv administered every two days for total 5 times and monitered every two days; format: organism-based; conditions: in vivo, dose 15-30 mg/kg
4T1 [22] = assay: Induction of LPO accumulation in mouse 4T1 cells at 2.5 uM incubated for 6 hrs in presence of Fer-1 by C11-BODIPY staining based confocal laser scanning microscopic analysis; format: functional, cell-based
4T1 [23] = assay: Induction of intracellular ROS generation in mouse 4T1 cells at 2.5 uM incubated for 6 hrs in presence of Fer-1 by DCFH-DA staining based confocal laser scanning microscopic analysis; format: functional, cell-based
4T1 [24] = assay: Antitumor activity against mouse 4T1 cells xenografted in iv dosed BALB/c mouse assessed as tumor growth inhibition administered every two days for total 5 times and monitered every two days by electronic caliper method; format: functional, organism-based; conditions: dose 15-30 mg/kg
4T1 [25] = assay: Induction of intracellular ROS generation in mouse 4T1 cells at 2.5 uM incubated for 6 hrs by DCFH-DA staining based flow cytometric analysis; format: functional, cell-based
4T1 [26] = assay: Cytotoxicity against mouse 4T1 cells assessed as reduction in cell viability incubated for 48 hrs by MTT assay; format: functional, cell-based; conditions: 4T1, 48 h
HT-1080 [27] = assay: Cytotoxicity against human HT-1080 cells assessed as reduction in cell viability incubated for 48 hrs by MTT assay; format: functional, cell-based; conditions: HT-1080, 48 h
MCF7 = assay: Cytotoxicity against human MCF7 cells assessed as reduction in cell viability incubated for 48 hrs by MTT assay; format: functional, cell-based; conditions: MCF7, 48 h
4T1 [28] = assay: Induction of ferroptosis in mouse 4T1 cells assessed as increase in mitochondrial membrane density at 5 uM incubated for 6 hrs by TEM analysis; format: functional, cell-based

In the case of `O=C(NCCc1ccccc1)C(c1csc2ccccc12)N(C(=O)CCl)c1ccc(-c2cnco2)cc1` (centres undefined), the Activity (4T1 [1]) is reported as “Active”, the Activity (4T1 [2]) is reported as “Active” and the inhibition in vivo at 15 mg/kg (4T1 [3]) is reported as 33.2%. The Activity [4] was “Non-Toxic”, the Activity (4T1 [5]) was “inactive” and the Activity (4T1 [6]) was “Active”. For the same compound, the Activity (4T1 [7]) was “inactive”, the Activity (4T1 [8]) was “Active” and the “Ratio IC50” value [9] was 31.5. The Activity (4T1 [10]) was “Active”, the inhibition [11] was 11.8% and the Activity (4T1 [12]) was “Active”. For the same compound, the Activity [13] was “Non-Toxic”, the inhibition in vivo at 30 mg/kg (4T1 [14]) was 55.1% and the IC50 (HT-1080 [15]) was 4.73 µM. For the same compound, the Stabilty [16] was “Stable”, the Activity (4T1 [17]) was “Active” and the Activity (4T1 [18]) was “Active”. For the same compound, the Activity (4T1 [19]) was “Active”, the Activity (4T1 [20]) was “inactive” and the Activity [21] was “Non-Toxic”. For the same compound, the Activity (4T1 [22]) was “inactive”, the Activity (4T1 [23]) was “inactive” and the Activity (4T1 [24]) was “Dose-Dependent Effect”. The Activity (4T1 [25]) was “Active”, the IC50 (4T1 [26]) was 0.78 µM and the IC50 (HT-1080 [27]) was 0.15 µM. For the same compound, the IC50 (MCF7) was 6.9 µM and the Activity (4T1 [28]) was “Active”.
